Experimental data: US5593966A, “Peptide derivatives of cytochrome b558 and their use as medicaments” (The United States of America as represented by the …, priority 1990, dated 1997)
Where a SMILES comes first, the peptide text is derived from it.

Columns and labels:
NADPH oxidase [1] = target: T1, NADPH oxidase (Homo sapiens, UniProt P14598); test: Permeabilized cell NADPH oxidase assay (electropermeabilized neutrophils stimulated with PMA or fMLP); type: cell-based; details: for Mean inhibition vs. buffer control (n), Electropermeabilized cell, PMA: PMA 10 ng/ml; for Mean inhibition vs. buffer control (n), Electropermeabilized cell, PMA / Mean inhibition vs. buffer control (n), Electropermeabilized cell, FMLP: preincubation with 800 μM peptide, assay with 200 μM peptide; for Mean inhibition vs. buffer control (n), Electropermeabilized cell, FMLP: fMLP 10 μM
T1 construct: Neutrophils were electropermeabilized as described; endogenous in cells; host or cells: electropermeabilized peripheral blood neutrophils (PMN), stimulated with PMA or fMLP
T1 sequence (P14598 1-390): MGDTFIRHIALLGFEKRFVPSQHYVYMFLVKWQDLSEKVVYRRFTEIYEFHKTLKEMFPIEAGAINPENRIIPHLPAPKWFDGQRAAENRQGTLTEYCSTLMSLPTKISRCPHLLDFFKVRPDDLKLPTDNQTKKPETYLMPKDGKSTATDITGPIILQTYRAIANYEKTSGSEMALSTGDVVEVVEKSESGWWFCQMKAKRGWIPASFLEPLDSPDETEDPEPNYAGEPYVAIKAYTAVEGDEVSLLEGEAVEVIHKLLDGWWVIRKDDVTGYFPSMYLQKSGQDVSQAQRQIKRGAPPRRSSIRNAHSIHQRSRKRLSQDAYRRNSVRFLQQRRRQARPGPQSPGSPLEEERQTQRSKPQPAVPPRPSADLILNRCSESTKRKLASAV
Method: Neutrophils were electropermeabilized as described (Grinstein et al, J. Biol. Chem., 263, 1779-1783 (1988)), incubated on ice for 30 min in permeabilization buffer (140 mM KCl, 1 mM MgCl2, 1 mM EGTA, 0.193 mM CaCl2, 1 mM ATP, 2 mM NADPH, 10 μM GTP, 10 mM glucose, 10 mM HEPES-N-methylglucamine, pH 7) supplemented with synthetic peptide (800 μM). The cells were resuspended at 5×10^6 /ml in the same buffer containing 200 μM synthetic peptide, 150 μM acetylferricytochrome c, catalase (2500 U/ml), ±25 μg/ml superoxide dismutase. Wells containing 5×10^5 cells were stimulated with PMA (10 ng/ml) or fMLP (10 μM) and O2^-- production was determined as above.
Electropermeabilized PMN were incubated on ice in permeabilization buffer supplemented with synthetic peptide (800 μM). The cells were resuspended at 5×10^6 /ml in the same buffer containing 200 μM synthetic peptide. Wells containing 5×10^5 cells were stimulated with PMA (10 ng/ml) or fMLP (10 μM) and O2 production was determined as described in "Experimental Procedures". […] Electropermeabilized PMN sham incubated without synthetic peptides and stimulated with […] or fMLP generated 8.4±1.1 nmol O2 /min/10^6 cells and 8.9±1.7 nmol O2 /min/10^6 cells, respectively (mean±SEM, 5 independent experiments).

NADPH oxidase [2] = target: T1, NADPH oxidase; test: Cell-free NADPH oxidase assay (arachidonate-stimulated O2 generation, neutrophil membrane plus cytosol); type: biochemical; details: 100 μM synthetic peptide; arachidonate-stimulated O2 production; mean of n experiments in duplicate
Method: Neutrophils were isolated from peripheral blood and cytosol and membrane fractions were prepared by differential centrifugation as previously described (Nunoi et al, Science, 242, 1298-1301 (1988)). Typical yields of cytosol and membrane proteins obtained were 2.8±0.1 mg/10^8 cell equivalents and 1.5±0.1 μg/10^6 cell equivalents, respectively (mean±SD, 3 separate preparations). The cell-free assay of O2 generation was modified as follows: wells contained 2.5-5.0×10^5cell equivalents neutrophil membrane, 10^6 cell equivalents neutrophil cytosol in a final volume of 100 μl reaction mixture (150 μM acetylated ferricytochrome c (11), 4 mM MgCl2, 10 μM FAD, 1 mM EGTA, 200 μM NADPH, 40 μM arachidonic acid, 10 μM GTPγ S, ±25 μg/ml superoxide dismutase in 75 mM potassium phosphate, pH 7.0). Because membrane preparations varied in activity, the amount of membrane added per well was adjusted to yield an arachidonate-stimulated O2 production of ≈0.4 nmol/min/well in the absence of synthetic peptide. The maximal linear rate of superoxide dismutase-inhibitable acetylferricytochrome c reduction (ΔO.D. […]) was converted to nmol O2 generated/min using an instrument-corrected extinction coefficient derived empirically as described (Leslie, J. Immunol. Methods, 103, 253-259 (1987)). To measure oxidase inhibition by antibodies directed against the 91 kDa subunit of cytochrome b558 membranes were solubilized in 1% deoxycholate, incubated for 30 min on ice with an equal volume of serum at various dilutions. Diluting these samples 10-fold with H2 O lowered the detergent concentration below the CMC and allowed sedimentation (130,000 g×30 min) of an oxidase-competent membrane fraction. This fraction was resolubilized in deoxycholate, and assayed for arachidonate-stimulatedO2 generation in the presence of cytosol.
In Table 1 above, the cell-free assay of O2 generation contained 2.5-5.0×10^5 cell equivalents of neutrophil (PMN) membrane, 10^6 cell equivalents PMN cytosol in a final volume of 100 μl reaction mixture. Because membrane preparations varied in activity, the amount of membrane added per well was adjusted to yield an arachidonate-stimulated O2 production of ≈0.4 nmol/min/well in the absence of synthetic peptide. Data represent the mean percent inhibition obtained in n experiments (each performed in duplicate) in the presence of 100 μM synthetic peptide compared to a simultaneous buffer control.

| Compound | Mean inhibition vs. buffer control (n), Electropermeabilized cell, PMA (NADPH oxidase [1]) [%] | Mean inhibition vs. buffer control (n), Electropermeabilized cell, FMLP (NADPH oxidase [1]) [%] | Mean inhibition vs. buffer control (n), Cell-free assay (NADPH oxidase [2]) [%] | Inhibition of O2 production by electropermeabilized neutrophils (in words) (NADPH oxidase [1]; stimulated with fMLP or PMA) |
| --- | --- | --- | --- | --- |
| NC(N)=NCCC[C@H](NC(=O)[C@H](Cc1ccccc1)NC(=O)[C@@H]1CCCN1C(=O)[C@H](CO)NC(=O)[C@H](Cc1ccccc1)NC(=O)CNC(=O)[C@@H]1CCCN1C(=O)[C@@H]1CCCN1C(=O)[C@@H](N)CCCN=C(N)N)C(=O)O [Bradykinin] (H-RPPGFSPFR-OH) | -8 | -6 | -8 | – |
| CC(C)[C@H](NC(=O)[C@H](C)NC(=O)[C@H](Cc1c[nH]c2ccccc12)NC(=O)[C@H](CC(N)=O)NC(=O)CN)C(=O)N[C@@H](CC(N)=O)C(=O)N[C@@H](CCC(=O)O)C(=O)NCC(=O)N[C@@H](CS)C(=O)O [GNWAVNEGC] (H-GNWAVNEGC-OH) | – | – | -17 | – |
| CC(C)C[C@H](NC(=O)[C@@H](N)Cc1c[nH]cn1)C(=O)N[C@@H](Cc1ccccc1)C(=O)N[C@@H](CC(N)=O)C(=O)N[C@H](C(=O)N[C@@H](CCC(=O)O)C(=O)N[C@@H](Cc1c[nH]c2ccccc12)C(=O)N[C@@H](CS)C(=O)O)C(C)C [HLFNVEWC] (H-HLFNVEWC-OH) | -6 | 6 | -17 | – |
| CC[C@H](C)[C@H](NC(=O)[C@H](Cc1ccccc1)NC(=O)[C@H](Cc1c[nH]cn1)NC(=O)[C@@H](NC(=O)CNC(=O)[C@@H](N)CCCNC(=N)N)C(C)C)C(=O)N[C@@H](Cc1ccccc1)C(=O)O [RGVHFIF, Arg--Gly--Val--His--Phe--Ile--Phe] (H-RGVHFIF-OH) | 72 | 73 | 97 | – |
| CC[C@H](C)[C@H](NC(=O)[C@@H](NC(=O)[C@H](C)NC(=O)[C@H](CCC(N)=O)NC(=O)[C@H](Cc1ccccc1)NC(=O)CNC(=O)[C@H](C)NC(=O)[C@H](Cc1c[nH]cn1)NC(=O)[C@H](C)NC(=O)[C@H](CCCNC(=N)N)NC(=O)[C@H](CCCCN)NC(=O)[C@@H](N)CCCNC(=N)N)[C@@H](C)O)C(=O)O [RKRAHAGFQATI] (H-RKRAHAGFQATI-OH) | -11 | -28 | -5 | – |
| CC[C@H](C)[C@H](NC(=O)[C@H](Cc1ccccc1)NC(=O)[C@H](Cc1c[nH]cn1)NC(=O)[C@@H](NC(=O)CNC(=O)[C@H](CCCNC(=N)N)NC(=O)[C@@H]1CCCN1C(=O)CNC(=O)[C@H](CO)NC(=O)[C@H](CCC(=O)O)NC(=O)[C@H](CO)NC(=O)[C@H](CC(N)=O)NC(=O)[C@@H](N)CO)C(C)C)C(=O)N[C@@H](Cc1ccccc1)C(=O)N[C@@H](CC(N)=O)C(=O)N[C@@H](CCCCN)C(=O)N[C@@H](CCC(=O)O)C(=O)N[C@@H](CC(N)=O)C(=O)N[C@@H](Cc1ccccc1)C(=O)O [SNSESGPRGVHFIFNKENF] (H-SNSESGPRGVHFIFNKENF-OH) | – | – | 96 | – |
| NC(=O)C[C@H](NC(=O)[C@@H](N)CO)C(=O)N[C@@H](CO)C(=O)N[C@@H](CCC(=O)O)C(=O)N[C@@H](CO)C(=O)NCC(=O)N1CCC[C@H]1C(=O)O [SNSESGP] (H-SNSESGP-OH) | -1 | 2 | -8 | – |
| CSCC[C@H](NC(=O)[C@H](CO)NC(=O)[C@H](Cc1ccccc1)NC(=O)[C@@H](N)C(C)C)C(=O)N[C@@H](Cc1ccccc1)C(=O)N[C@@H](CCC(N)=O)C(=O)NCC(=O)N[C@@H](CCC(=O)O)C(=O)N[C@@H](CCC(=O)O)C(=O)N[C@@H](CO)C(=O)O [VFSMFQGEES] (H-VFSMFQGEES-OH) | 3 | -5 | 10 | – |
| RGVHFIFNKENF [Residues 559-570 of the 91 kDa subunit of cytochrome b558] | 61 | 67 | 93 | inhibited |
